Structures are written as SMILES. *1 amine or outer side, *2 acyl side, *3 side chain or, on linkers, in order; H or OH if unused. Where a SMILES comes first, the peptide text is derived from it. Bridges are numbered along the chain shown (N, C = ends). [ ]: non-standard residue; d: D form. Abu(4-yl) = O=C([C@H](CC[*:3])N[*:1])[*:2]; AEF = NCCOc1ccc(C[C@H](N)C(=O)O)cc1; Tic = O=C(O)[C@@H]1Cc2ccccc2CN1; hLeu = CC(C)CC[C@H](N)C(=O)O; αMeK = C[C@](N)(CCCCN)C(=O)O; Dap = NC[C@H](N)C(=O)O Some results are limits rather than exact numbers.

The target of the experiment is T1, Interleukin-23 receptor (Homo sapiens, UniProt Q5VWK5).
T1 sequence (Q5VWK5 whole entry): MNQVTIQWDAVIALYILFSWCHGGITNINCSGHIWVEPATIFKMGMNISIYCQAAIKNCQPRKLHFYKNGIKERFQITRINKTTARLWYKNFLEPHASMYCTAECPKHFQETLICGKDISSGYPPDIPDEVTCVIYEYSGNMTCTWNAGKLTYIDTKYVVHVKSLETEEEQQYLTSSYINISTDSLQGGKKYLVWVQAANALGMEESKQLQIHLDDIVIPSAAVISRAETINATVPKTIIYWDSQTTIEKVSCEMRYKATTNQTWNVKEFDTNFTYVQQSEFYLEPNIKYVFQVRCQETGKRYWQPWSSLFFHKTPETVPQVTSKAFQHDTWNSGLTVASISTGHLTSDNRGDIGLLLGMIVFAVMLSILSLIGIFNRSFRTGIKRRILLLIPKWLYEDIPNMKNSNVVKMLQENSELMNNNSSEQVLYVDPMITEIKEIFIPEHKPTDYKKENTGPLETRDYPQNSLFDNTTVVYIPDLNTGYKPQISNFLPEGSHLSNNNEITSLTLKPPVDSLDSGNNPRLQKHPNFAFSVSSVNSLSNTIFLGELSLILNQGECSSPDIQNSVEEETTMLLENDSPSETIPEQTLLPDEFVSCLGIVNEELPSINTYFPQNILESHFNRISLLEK
In words: Inhibition of interleukin-23 binding to human interleukin-23 receptor incubated for 2 hrs by competitive binding ELISA. A general note: An ELISA detects its analyte on a solid surface through an enzyme-linked reagent.
By IC50 is commonly meant the concentration that gives 50% inhibition. A lower IC50 goes with higher potency. `CC(=O)N[C@H](C(=O)N[C@@H](CCC(N)=O)C(=O)N[C@@H](Cc1ccccc1)C(=O)N[C@@H](CC(=O)O)C(=O)N[C@@H](CS)C(=O)N[C@@H](CCCNC(=N)N)C(=O)N[C@H](C(=O)N[C@@H](Cc1c[nH]c2ccccc12)C(=O)N[C@@H](CCC(=O)O)C(=O)N[C@@H](CS)C(=O)N[C@@H](Cc1ccc(O)cc1)C(=O)N[C@@H](Cc1c[nH]c2ccccc12)C(=O)N[C@@H](Cc1cnc[nH]1)C(=O)N[C@H](C(=O)N[C@@H](Cc1ccccc1)C(=O)NCC(N)=O)[C@@H](C)O)[C@@H](C)O)[C@@H](C)O` showed an IC50 of 500 to 1000 nM.
`CC(=O)N[C@@H](CS)C(=O)N[C@@H](CCC(N)=O)C(=O)N[C@H](C(=O)N[C@@H](Cc1c[nH]c2ccccc12)C(=O)N[C@@H](CCC(N)=O)C(=O)N[C@@H](CS)C(=O)N[C@@H](Cc1ccc(O)cc1)C(=O)N[C@@H](Cc1c[nH]c2ccccc12)C(=O)N[C@@H](CC(C)C)C(=O)N[C@@H](CCC(=O)O)C(=O)N[C@@H](CC(N)=O)C(=O)NCC(N)=O)[C@@H](C)O` gave an IC50 of under 500 nM.
In turn, `CC(=O)N[C@@H](CS)C(=O)N[C@@H](C)C(=O)N[C@@H](CC(=O)O)C(=O)N[C@@H](Cc1c[nH]c2ccccc12)C(=O)N[C@H](C(=O)N[C@@H](CS)C(=O)N[C@@H](Cc1ccc(O)cc1)C(=O)N[C@@H](Cc1c[nH]c2ccccc12)C(=O)N[C@@H](Cc1cnc[nH]1)C(=O)N[C@@H](CCCNC(=N)N)C(=O)N[C@@H](CS)C(=O)NCC(=O)N[C@@H](Cc1c[nH]c2ccccc12)C(=O)N[C@@H](Cc1c[nH]c2ccccc12)C(=O)NCC(=O)N[C@@H](CS)C(N)=O)C(C)C` (Ac-CADWVCYWHRCGWWGC-NH2) gave a half-inhibitory concentration (IC50) of over 1000 nM.
On to `CC(=O)NCCCC[C@H](NC(=O)[C@](C)(CCCCN)NC(=O)[C@H](Cc1ccc2ccccc2c1)NC(=O)[C@H](Cc1ccc(N)cc1)NC(=O)[C@@H](NC(=O)[C@H](CCC(N)=O)NC(=O)[C@H](Cc1c[nH]c2ccccc12)NC(=O)[C@@H](NC(=O)[C@H](CCC(N)=O)NC(=O)[C@@H](NC(C)=O)C(C)(C)S)[C@@H](C)O)C(C)(C)S)C(=O)N[C@@H](CC(N)=O)C(=O)NCC(N)=O`, for which the 50% inhibitory concentration (IC50) fell in the range of 100 to 1000 nM.
Under `CC(=O)N[C@@H](CS)C(=O)N[C@@H](C)C(=O)N[C@@H](CC(=O)O)C(=O)N[C@@H](Cc1c[nH]c2ccccc12)C(=O)N[C@H](C(=O)N[C@@H](CS)C(=O)N[C@@H](Cc1ccc(O)cc1)C(=O)N[C@@H](Cc1ccc(-c2ccccc2)cc1)C(=O)N[C@@H](CCCN)C(=O)N[C@@H](CN)C(=O)N[C@@H](Cc1ccccc1)C(=O)NCC(=O)NCCOCC(=O)N[C@H](CCCCN)C(N)=O)C(C)C` stands over 30000 nM; under `CC(=O)N[C@@H](CS)C(=O)N[C@@H](CCC(N)=O)C(=O)N[C@H](C(=O)N[C@@H](Cc1c[nH]c2ccccc12)C(=O)N[C@@H](CCC(N)=O)C(=O)N[C@@H](CS)C(=O)N[C@@H](Cc1ccc(O)cc1)C(=O)N[C@@H](Cc1c[nH]c2ccccc12)C(=O)N(C)[C@@H](CCC(=O)O)C(=O)N[C@@H](CC(N)=O)C(=O)NCC(=O)NCCOCC(=O)N[C@H](CCCCN)C(=O)O)[C@@H](C)O`, over 1000 nM; under `CC(=O)N[C@@H](CS)C(=O)N[C@@H](CCC(N)=O)C(=O)N[C@H](C(=O)N[C@@H](Cc1c[nH]c2ccccc12)C(=O)N[C@@H](CCC(N)=O)C(=O)N[C@@H](CS)C(=O)N[C@@H](Cc1ccc(O)cc1)C(=O)N[C@H](CC(=O)N[C@@H](CCCNC(=N)N)C(=O)N[C@H](C(=O)N[C@@H](CC(N)=O)C(=O)NCC(=O)NCCOCC(=O)N[C@H](CCCCN)C(N)=O)C(C)C)Cc1ccc(O)cc1)[C@@H](C)O`, over 30000 nM.
`CC(=O)N[C@@H](CS)C(=O)N[C@@H](CCC(N)=O)C(=O)N[C@H](C(=O)N[C@@H](Cc1c[nH]c2ccccc12)C(=O)N[C@@H](CCC(N)=O)C(=O)N[C@@H](CS)C(=O)N[C@@H](Cc1ccc(O)cc1)C(=O)N[C@@H](Cc1c[nH]c2ccccc12)C(=O)N1CCC[C@H]1C(=O)N[C@@H](CCC(=O)O)C(=O)N[C@@H](CC(N)=O)C(=O)NCC(N)=O)[C@@H](C)O` registered an IC50 of over 30000 nM.
With `COc1ccc(C[C@H](NC(=O)[C@@H](NC(=O)[C@H](CCC(N)=O)NC(=O)[C@H](Cc2c[nH]c3ccccc23)NC(=O)[C@@H](NC(=O)[C@H](CCC(N)=O)NC(=O)[C@@H](NC(C)=O)C(C)(C)S)[C@@H](C)O)C(C)(C)S)C(=O)N[C@@H](Cc2ccc3ccccc3c2)C(=O)N[C@@](C)(CCCCN)C(=O)N[C@@H](CCCCNC(CC(C)C)=C2C(=O)CC(C)(C)CC2=O)C(=O)N[C@@H](CC(N)=O)C(=O)NCC(N)=O)cc1`, the IC50 lay in the range of 100 to 1000 nM.
Under `CC(=O)NCCCC[C@H](NC(=O)[C@](C)(CCCCN)NC(=O)[C@@H]1Cc2ccccc2CN1C(=O)[C@H](Cc1ccc(OCCN)cc1)NC(=O)[C@@H]1CSCC[C@H](NC(C)=O)C(=O)N[C@@H](CN)C(=O)N[C@@H]([C@@H](C)O)C(=O)N[C@@H](Cc2c[nH]c3ccccc23)C(=O)N[C@@H](CCC(N)=O)C(=O)N1)C(=O)N[C@@H](CC(N)=O)C(=O)NCC(N)=O` (Ac-[Abu(4-yl)][Dap]TWQC[AEF][Tic][αMeK]K(Ac)NG-NH2; thioether 1-6) stands over 3000 nM; under `CC(=O)N[C@@H](CS)C(=O)N[C@@H](CCC(N)=O)C(=O)N[C@H](C(=O)N[C@@H](Cc1c[nH]c2ccccc12)C(=O)N[C@@H](CCC(N)=O)C(=O)N[C@@H](CS)C(=O)N[C@@H](Cc1ccc(O)cc1)C(=O)N[C@@H](Cc1c[nH]c2ccccc12)C(=O)N[C@@H](CCCNC(=N)N)C(=O)N[C@H](CCC(=O)O)C(=O)N[C@@H](CC(N)=O)C(=O)NCC(=O)NCCOCC(=O)N[C@H](CCCCN)C(N)=O)[C@@H](C)O`, over 1000 nM.
`CC(=O)N[C@@H](CS)C(=O)N[C@@H](CCC(N)=O)C(=O)N[C@H](C(=O)N[C@@H](Cc1c[nH]c2ccccc12)C(=O)N[C@@H](CCC(N)=O)C(=O)N[C@@H](CS)C(=O)N[C@@H](Cc1ccc(O)cc1)C(=O)N[C@@H](Cc1c[nH]c2ccccc12)C(=O)N[C@@H](CCC(C)C)C(=O)N[C@@H](CCC(=O)O)C(=O)N[C@@H](CC(N)=O)C(=O)NCC(=O)N1CCC[C@H]1C(N)=O)[C@@H](C)O` yielded a concentration for half-maximal inhibition (IC50) of 97 to 239 nM.
The molecule `CC(=O)N[C@@H](CS)C(=O)N[C@@H](CCC(N)=O)C(=O)N[C@H](C(=O)N[C@@H](CCCNC(=N)N)C(=O)N[C@@H](CCC(N)=O)C(=O)N[C@@H](CS)C(=O)N[C@@H](Cc1ccc(O)cc1)C(=O)N[C@@H](Cc1c[nH]c2ccccc12)C(=O)N[C@@H](CCC(C)C)C(=O)N[C@@H](CCC(=O)O)C(=O)N[C@@H](CC(N)=O)C(=O)NCC(N)=O)[C@@H](C)O` (Ac-CQTRQCYW[hLeu]ENG-NH2) showed an IC50 of over 10000 nM.
Under `CC(=O)N[C@@H](CS)C(=O)N[C@@H](C)C(=O)N[C@@H](CC(=O)O)C(=O)N[C@@H](Cc1c[nH]c2ccccc12)C(=O)N[C@H](C(=O)N[C@@H](CS)C(=O)N[C@@H](Cc1ccc(O)cc1)C(=O)N[C@@H](Cc1cccc2ccccc12)C(=O)N[C@@H](Cc1cnc[nH]1)C(=O)NC(C)(C)C(=O)N[C@@H](Cc1ccccc1)C(=O)NCC(N)=O)C(C)C` stands over 1000 nM.
In turn, `CC(=O)N[C@@H](CS)C(=O)N[C@@H](C)C(=O)N[C@@H](CC(=O)O)C(=O)N[C@@H](Cc1c[nH]c2ccccc12)C(=O)N[C@H](C(=O)N[C@@H](CS)C(=O)N[C@@H](Cc1ccc(O)cc1)C(=O)N[C@@H](Cc1c[nH]c2ccccc12)C(=O)N[C@@H](Cc1cnc[nH]1)C(=O)N[C@@H](CC(N)=O)C(=O)N[C@@H](Cc1cnc[nH]1)C(=O)N[C@@H](CO)C(=O)N[C@@H](CCC(=O)O)C(=O)NCC(=O)N[C@@H](CO)C(=O)NCC(N)=O)C(C)C` (Ac-CADWVCYWHNHSEGSG-NH2) came in with an IC50 of 500 to 1000 nM.
For `CC(=O)N[C@@H](CS)C(=O)N[C@@H](CCC(N)=O)C(=O)N[C@@H](CC(=O)O)C(=O)N[C@@H](Cc1c[nH]c2ccccc12)C(=O)N[C@@H](CCC(N)=O)C(=O)N[C@@H](CS)C(=O)N[C@@H](Cc1ccc(O)cc1)C(=O)N[C@@H](Cc1c[nH]c2ccccc12)C(=O)N[C@@H](CCCNC(=N)N)C(=O)N[C@@H](CCC(=O)O)C(=O)N[C@@H](CC(N)=O)C(=O)NCC(=O)NCCOCC(=O)N[C@H](CCCCN)C(N)=O` the value was under 500 nM; for `CC(C)[C@H](NC(=O)[C@H](Cc1c[nH]c2ccccc12)NC(=O)[C@@H](NC(=O)[C@H](Cc1cnc[nH]1)NC(=O)[C@@H](N)CS)[C@@H](C)O)C(=O)N[C@@H](CS)C(=O)N[C@@H](Cc1ccc(O)cc1)C(=O)N[C@@H](Cc1c[nH]c2ccccc12)C(=O)N[C@@H](Cc1cnc[nH]1)C(=O)N[C@@H](CCC(=O)O)C(=O)N[C@@H](Cc1ccccc1)C(=O)N[C@@H](CO)C(N)=O` (H-CHTWVCYWHEFS-NH2), over 1000 nM.
As to `C[C@@H](O)[C@H](NC(=O)[C@H](CCC(=O)O)NC(=O)[C@@H](N)CS)C(=O)N[C@@H](Cc1c[nH]c2ccccc12)C(=O)N[C@@H](CCC(=O)O)C(=O)N[C@@H](CS)C(=O)N[C@@H](Cc1ccc(O)cc1)C(=O)N[C@@H](Cc1c[nH]c2ccccc12)C(=O)N[C@@H](Cc1cnc[nH]1)C(=O)N[C@@H](CO)C(=O)N[C@@H](Cc1ccccc1)C(=O)N[C@@H](CO)C(N)=O` (H-CETWECYWHSFS-NH2), the IC50 is over 1000 nM.
For `CC(=O)N[C@@H](CS)C(=O)N[C@@H](C)C(=O)N[C@@H](CC(=O)O)C(=O)N[C@@H](Cc1c[nH]c2ccccc12)C(=O)N[C@H](C(=O)N[C@@H](CS)C(=O)N[C@@H](Cc1ccc(O)cc1)C(=O)N[C@@H](Cc1cccc2ccccc12)C(=O)N[C@@H](Cc1cnc[nH]1)C(=O)NCCC(=O)N[C@@H](Cc1ccccc1)C(=O)NCC(N)=O)C(C)C` the value was over 1000 nM.
